Assays:
[1] = test system: Nucleic Acid; assay: In vitro ability to cleave DNA using supercoiled pM2 DNA without beta-mercaptoethanol at drug concentrations of 2E-5; Greater activity; format: functional
[2] = test system: Nucleic Acid; assay: In vitro DNA cleaving activity which induce cell filamentation was evaluated by inducement of the SOS response at a dose of 40 ug/ml.; format: functional
[3] = test system: HCT-116; assay: Inhibitory concentration was determined for cytotoxicity in HCT116 human colon cancer cell line.; format: functional, cell-based
[4] = test system: Nucleic Acid; assay: In vitro DNA cleaving activity which induce cell filamentation was evaluated by inducement of the SOS response at a dose of 200 ug/ml.; format: functional
[5] = test system: Mus musculus; assay: In vivo relative median survival time of drug treated and control mice in murine Madison 109 (M109) lung carcinoma cells at 64 mg/kg/inj.; format: functional
[6] = test system: Nucleic Acid; assay: In vitro ability to cleave DNA using supercoiled pM2 DNA with beta-mercaptoethanol at drug concentrations of 2E-5; Greater activity; format: functional
[7] = test system: Nucleic Acid; assay: In vitro DNA cleaving activity which induce cell filamentation was evaluated by inducement of the SOS response at a dose of 1000 ug/ml.; format: functional
[8] = test system: Nucleic Acid; assay: In vitro ability to cleave DNA using supercoiled pM2 DNA with beta-mercaptoethanol at a drug concentration of 2E-5; Greater activity; format: functional
[9] = test system: Mus musculus; assay: In vivo relative median survival time of drug treated and control mice in murine Madison 109 (M109) lung carcinoma cells at 16 mg/kg/inj.; format: functional
[10] = test system: Nucleic Acid; assay: In vitro ability to cleave DNA using supercoiled pM2 DNA without beta-mercaptoethanol at a drug concentration of 2E-5; Greater activity; format: functional
[11] = test system: HCT-116; assay: Inhibitory concentration was determined for cytotoxicity in HCT116 human colon cancer cell line; format: functional, cell-based

O=C1C2=CCCC1(O)C#Cc1ccccc1C#C[C@H]2O (stereo partly specified)
DNA cleavage [1]: Greater activity | Area [2]: 0 mm² | IC50 [3]: 1800 nM | Area [4]: 0 mm² | T/C [5]: 107% | DNA cleavage [6]: Greater activity | Area [7]: 0 mm²

O=C1C2=CCCC1(O)C#C/C=C\C#C[C@H]2O (stereo partly specified)
Area [2]: 427 mm² | IC50 [3]: 100 nM | DNA cleavage [8]: Greater activity | Area [4]: 954 mm² | T/C [9]: 144% | DNA cleavage [10]: Greater activity | Area [7]: 1620 mm²

O=C1C2=CCCC1(O)C#CC1=C(C#C[C@H]2O)CCC1 (stereo partly specified)
DNA cleavage [1]: Greater activity | Area [2]: 0 mm² | Area [4]: 75 mm² | T/C [5]: 147% | DNA cleavage [6]: Greater activity | IC50 [11]: 2200 nM | Area [7]: 162 mm²
